Results published in article PMC10011554, “BET inhibitor trotabresib in heavily pretreated patients with solid tumors and diffuse large B-cell lymphomas” (Nature Communications, 2023).
Where “and” joins values, the source holds several entries; their conditions need not be identical. Identical values can stand only once.

Legend:
[1] = system: advanced or unresectable solid tumors; assay: Tumor response (RECIST v1.1/RANO), PFS and OS in phase I study, parts A and C; format: in vivo, human
Experimental: Secondary objectives were the preliminary efficacy of trotabresib in terms of clinical benefit rate (CR + PR + SD of ≥4 months’ duration), ORR (CR + PR), duration of response or SD, PFS, OS, and the PK of trotabresib. In addition, part C assessed the effects of food on the PK and the safety of trotabresib as a secondary objective. The pharmacodynamics of trotabresib were assessed as an exploratory objective.
Response was assessed using Response Evaluation Criteria in Solid Tumors (RECIST) v1.1[54] in patients with solid tumors, International Working Group criteria in patients with DLBCL[55], and Response Assessment in Neuro-Oncology (RANO) criteria[56] in patients with CNS tumors (astrocytoma and glioblastoma). For patients with BCC, the response was assessed using a combination of radiological assessment of target lesions per RECIST v1.1, digital clinical photography assessed per World Health Organization (WHO) criteria, and punch biopsies to confirm CR. PK parameters assessed included Cmax, tmax, AUC, t½, apparent clearance (CL/F), and apparent volume of distribution (Vz/F).
Bayesian logistic regression model based on dose-limiting toxicity was used to provide initial guidance for dose recommendations in the dose-escalation phase. The final decision was reached by considering the totality of safety, PK, and PD data. For binary efficacy endpoints, two-sided 95% Clopper–Pearson exact confidence intervals were provided. For time-to-event endpoints (PFS and OS), the median and 95% CI were estimated using the Kaplan–Meier method.

[2] = Clinical plasma and CSF pharmacokinetics, part A; format: in vivo; conditions: human
Experimental: Protocol CC-90010-ST-001 Celgene Corporation
Following oral administration of CC-90010, geometric mean peak exposure to CC-90010, based on Cmax, increased with dose on Day 1 (single dose) and after last dose (repeated dosing), in a manner approximately proportional with dose. Across all dose levels and both sampling occasions, Cmax was observed a few hours after dosing, with median tmax ranging from 1 to 2 hours postdose. The terminal elimination half-life, where estimated, was generally similar across the dose schedules, ranging from approximately 40 to 70 hours, after repeated dosing of […]
across the dose levels, after repeated dosing of CC-90010. There was evidence of accumulation after repeated dosing of CC-90010 for all dose schedules and dose levels, with accumulation […]
Between-subject variability across the dose levels ranged from 22.0% to 91.7% on Day 1 based […]
Cerebrospinal fluid samples were collected for one subject, who had quantifiable cerebrospinal fluid concentrations of CC-90010, with an average time matched CSF/plasma ratio of 6.6%.
1.4. Safety Monitoring Plan […]
(1 picture or pasted object on this page, not shown here)
The provisional CC-90010 dose levels (total doses within on cycle) are: 180 mg in Schedule 1, […]
220 mg in Schedule 4. It is however possible for some doses to be skipped or additional dose levels to be added during the course of the study, based on the emerging safety information.
After each cohort the posterior distributions for the probabilities of a DLT rates at different dose levels are obtained. The results of this analysis are summarized in terms of the estimated probabilities that the true rate of DLT at each dose-level will have of lying in each of the […]
• [0.16, 0.33) targeted toxicity
• [0.33, 1.00] excessive toxicity.
Following the principle of escalation with EWOC, after each cohort of subjects the recommended dose is the one with the highest posterior probability of the DLT rate falling in the target interval [16%, 33%) among the doses fulfilling EWOC, ie, it is unlikely (<25% posterior probability) that the DLT rate at the dose falls in the excessive toxicity interval.
Note that the dose that maximizes the posterior probability of targeted toxicity is the best estimate of the MTD, but it may not be an admissible dose according to the overdose criterion if the amount of data is insufficient. […]
Plasma PK parameters such as AUC0-24, C max, Tmax, t1/2, CL/F, and Vz/F of CC-90010 will be calculated by the noncompartmental analysis method from the plasma concentration-time profiles of CC-90010. Additional PK parameters including CSF to plasma concentration ratio of CC-90010, may be calculated, if data permits. […]

U-2932 (DOX-R) = system: U-2932 (DOX-R); design: method as in Report CC-90010-Pharm-1018; conditions: Table 2, ref Report CC-90010-Pharm-1018, read-out: absolute IC50, proliferation; cited from earlier work
OCT2 = system: OCT2; design: method as in Investigator's Brochure; conditions: OCT2, ref Investigator's Brochure; read-out: IC50, transporter inhibition; cited from earlier work
CYP2D6 = system: CYP2D6; design: method as in Investigator's Brochure; conditions: CYP2D6, ref Investigator's Brochure; read-out: IC50, direct inhibition; cited from earlier work
[3] = part A (N = 69), 02 Dec 2019 cutoff

## Cn1cc(-c2cc(S(C)(=O)=O)ccc2OCC2CC2)c2ccccc2c1=O [trotabresib]
[1]; part A
  patients on treatment ≥24 cycles with sustained SD: five
[1]; part A (N = 69)
  clinical benefit rate (CBR; CR, PR, or SD ≥4 months): 17.4%
  objective response rate (ORR; CR or PR): 2.9%
[1]; [3]
  subjects with SD: 33.3%
  subjects with SD ≥ 4 months: 14.5%
  subjects with confirmed CR: 1.4%
  subjects with confirmed PR: 1.4%
[1]; part A (n = 69)
  Median OS (95% CI): 189 (161–258) days
  Median PFS (95% CI): 57 (52–81) days
  OS range: 15 to 853 days
  PFS range: 11 to 945 days
[1]; part A, 10 December 2018 cutoff
  subjects with stable disease: 27.5%
[1]; part A, one patient with endometrial cancer
  duration of confirmed partial response: 8 cycles
[1]; part A, one patient with grade 2 diffuse astrocytoma
  duration of complete response: 19 cycles
[1]; part A, one patient with salivary gland cancer, ongoing at cycle 53
  total treatment duration: 4.0 years
[1]; part A, one patient with thymic cancer (38 cycles)
  time on treatment: 3.1 years
[1]; part C
  further patients on treatment ≥1 year with sustained SD: seven
[1]; part C (N = 41)
  best response CR: 0%
  best response PD: 19.5%
  best response PR: 0%
[1]; part C (N = 41), treated population
  CBR: 31.7%
[1]; part C (N = 41), treated population, confirmed responses
  ORR: 0.0%
[1]; part C (n = 41)
  Median OS (95% CI): 508 days and 508 (239–NE) days
  Median PFS (95% CI): 114 (84–239) days
  OS range: 33 to 508 days
  PFS range: 33 to 438 days
[1]; part C, one patient with refractory high-grade astrocytoma
  reduction in tumor size (minor response): 38%
[1]; part C, one patient with treatment-refractory high-grade astrocytoma, ongoing
  treatment duration: 2.5 years
[2]; CSF, oral, one subject, read-out: average time matched CSF/plasma ratio
  Kp: 0.066
[2]; in vivo, part A, across all dose levels, Day 1 and last dose, read-out: median tmax
  Tmax: 1 to 2 h
[2]; in vivo, part A, across dose levels, after repeated dosing, read-out: Vss/F
  Vd/F: 134 to 553 L
[2]; in vivo, part A, across dose schedules, after repeated dosing, read-out: terminal elimination half-life
  half-life: 40 to 70 h
U-2932 (DOX-R)
  IC50: 0.348 µM
OCT2
  IC50: 8.24 µM
CYP2D6
  IC50: ≥ 13.9 µM
